Assays:
Assay type in all cases: cell-based
[1] = system: Gram-positive bacteria (Staphylococcus aureus 6538); test: 28-day double inoculation challenge test in sunscreen emulsion base, Gram-positive inoculum
Method: (§1) The test was conducted in sunscreen emulsion base, pH 7 (Table 3).
(§2) Method: The emulsion was formulated with 2% of the blend #1 or with the appropriate controls, plus water to add up to the 2% of the concentration in the emulsion.
(§3) Briefly, each tested sample was split into three containers to be challenged, respectively, with either of the three classes of common contaminants: Gram-positive bacteria, Gram-negative bacteria, and fungi. Accordingly, three types of inocula were prepared as outlined in the Table 4. The Gram-positive bacterial inoculum consisted of the single microorganism, while the Gram-negative bacterial inoculum and fungal inoculum, each, consisted of more than one species pooled together (Table 4).
(§4) The test samples were spiked with the microbial inoculum on days 0 and 21, with the final concentration of bacteria being 10^6 cfu/g and the final concentration of fungi being 10^5 cfu/g. Inoculated samples were incubated at ambient temperature. On days 2, 7, 21 and 28 the samples were plated to recover viable microorganisms. Letheen Agar was used for the recovery of bacteria and on Potato Dextrose Agar was used for the recovery of fungi.

[2] = system: Gram-negative bacteria (Escherichia coli 8739, Pseudomonas aeruginosa 9027, Burkholderia cepacia 25416); test: 28-day double inoculation challenge test in sunscreen emulsion base, Gram-negative inoculum
Method: as §1, §2, §3, §4

[3] = system: Fungi (Candida albicans 10231 and Aspergillus brasiliensis 16404); test: 28-day double inoculation challenge test in sunscreen emulsion base, fungal inoculum
Method: as §1, §2, §3, §4

[4] = 0.75% active, 1.25% water in sunscreen emulsion base, pH 7, 2 days
[5] = 0.75% active, 1.25% water in sunscreen emulsion base, pH 7, 7 days
[6] = 0.75% active, 1.25% water in sunscreen emulsion base, pH 7, 21 days (before re-inoculation)
[7] = 0.75% active, 1.25% water in sunscreen emulsion base, pH 7, 28 days (7 days after re-inoculation)
[8] = 0.5% active, […] water in sunscreen emulsion base, pH 6.99, 2 days
[9] = 0.5% active, […] water in sunscreen emulsion base, pH 6.99, 7 days
[10] = 0.5% active, […] water in sunscreen emulsion base, pH 6.99, 21 days (before re-inoculation)
[11] = 0.5% active, […] water in sunscreen emulsion base, pH 6.99, 28 days (7 days after re-inoculation)

Structure (SMILES) | plate counts recovered [1, 4] | plate counts recovered [1, 5] | plate counts recovered [1, 6] | plate counts recovered [2, 4] | plate counts recovered [2, 5] | plate counts recovered [2, 6] | plate counts recovered [2, 7] | plate counts recovered [3, 4] | plate counts recovered [3, 5] | plate counts recovered [3, 6] | plate counts recovered [3, 7] | also measured
OCCCO [1,3-Propanediol] | >10^4 cfu/g | <10 cfu/g | <10 cfu/g | >10^4 cfu/g | <10 cfu/g | <10 cfu/g | 2.00 × 10^2 cfu/g | 3.40 × 10^4 cfu/g | 1.6 × 10^4 cfu/g | 9.5 × 10^4 cfu/g | >10^4 cfu/g | 
CC(=O)CCc1ccc(O)cc1 [Raspberry ketone, 4-(4-hydroxyphenyl) butan-2-one] |  |  |  |  |  |  |  |  |  |  |  | plate counts recovered [1, 8]: >10^4 cfu/g; plate counts recovered [1, 9]: <10 cfu/g; plate counts recovered [1, 10]: <10 cfu/g; plate counts recovered [1, 11]: 2.1 × 10^2 cfu/g; plate counts recovered [2, 8]: >10^4 cfu/g; plate counts recovered [2, 9]: >10^4 cfu/g; plate counts recovered [2, 10]: 1.3 × 10^3 cfu/g; plate counts recovered [2, 11]: >10^4 cfu/g; plate counts recovered [3, 8]: 2.4 × 10^4 cfu/g; plate counts recovered [3, 9]: 2.40 × 10^4 cfu/g; plate counts recovered [3, 10]: 4.4 × 10^3 cfu/g; plate counts recovered [3, 11]: >10^4 cfu/g
OCCCc1ccccc1 [Phenylpropanol] | >10^4 cfu/g | <10 cfu/g | <10 cfu/g | >10^4 cfu/g | >10^4 cfu/g | 6.00 × 10^3 cfu/g | >10^4 cfu/g | 3.70 × 10^4 cfu/g | 1.80 × 10^4 cfu/g | 4.00 × 10^3 cfu/g | >10^4 cfu/g | plate counts recovered [1, 7]: 1.30 × 10^3 cfu/g
